Measured values taken from the CheMixHub ionic liquid set.

Assay: xn = mol fraction of the nth substance listed

CCC(C)=O + CCCC[n+]1ccn(C)c1.F[B-](F)(F)F
viscosity [mPa·s]
Settings	298.15 K	303.15 K	313.15 K	323.15 K	333.15 K
100 kPa, x2 = 0	–	0.367	0.333	0.304	0.29
100 kPa, x2 = 0.0997	–	0.817	0.737	0.688	0.595
100 kPa, x2 = 0.1995	–	1.594	1.424	1.27	1.189
100 kPa, x2 = 0.2996	–	2.941	2.486	2.135	1.878
100 kPa, x2 = 0.3997	–	5.054	4.146	3.479	2.97
100 kPa, x2 = 0.5001	–	8.51	6.778	5.465	4.57
100 kPa, x2 = 0.6001	–	14.01	10.62	8.302	6.74
100 kPa, x2 = 0.6998	–	22.67	16.37	12.55	9.78
100 kPa, x2 = 0.7999	–	35.13	24.24	17.78	13.54
100 kPa, x2 = 0.8993	–	54.16	35.18	24.79	18.41
101.33 kPa, x1 = 0.1005	67.9	–	–	–	–
101.33 kPa, x1 = 0.3107	22.7	–	–	–	–
101.33 kPa, x1 = 0.6995	3.17	–	–	–	–
